{
  "source": "patent US6713260B2",
  "about": "“Methods of identifying compounds that bind to target species under isothermal denaturing conditions” (Pharmacia & Upjohn Company, priority 1999, dated 2004)",
  "key": {"[1]": {"target": "T1, S. aureus thymidylate kinase (TK) (Staphylococcus aureus, UniProt P65248)", "T1 construct": "6-his tag; made in house", "T1 sequence (P65248 whole entry)": "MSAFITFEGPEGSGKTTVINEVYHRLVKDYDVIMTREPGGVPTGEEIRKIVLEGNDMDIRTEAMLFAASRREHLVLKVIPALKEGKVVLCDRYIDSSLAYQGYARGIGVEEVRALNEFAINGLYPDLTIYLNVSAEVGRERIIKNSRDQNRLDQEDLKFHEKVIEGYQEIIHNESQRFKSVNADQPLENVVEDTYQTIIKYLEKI", "test": "biochemical", "assay_type": "binding"}, "Stromelysin [2]": {"target": "T2, Stromelysin (Homo sapiens, UniProt P08254)", "T2 construct": "made in house", "T2 sequence (P08254 100-264 limits assumed)": "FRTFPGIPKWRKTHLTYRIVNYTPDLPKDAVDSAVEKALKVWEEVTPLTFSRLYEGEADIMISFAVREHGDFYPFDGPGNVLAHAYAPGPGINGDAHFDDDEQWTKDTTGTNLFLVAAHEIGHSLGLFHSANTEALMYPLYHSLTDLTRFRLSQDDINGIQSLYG", "test": "Isothermal denaturation of stromelysin monitored by SYPRO Orange fluorescence", "assay_type": "binding", "conditions": "75° C.", "method": "Time-Dependency of the isothermal denaturation of Stromelysin monitored by SYPRO Orange Fluorescence. […] The data for the control reaction were analyzed using Equation 4, and those for the inhibited reactions with Equation 11. […] The solid lines represent the theoretical fits to the experimental data points.\nThe time-dependencies of the fluorescence of extrinsic dyes during isothermal denaturation were monitored as follows. The test dye was added to a stirred cuvette containing 2 milliliters (mL) of buffer that had been thermally preequilibrated at the desired temperature. A dye baseline was recorded for 45 seconds and the denaturation reaction initiated by the addition of a small aliquot of the protein stock solution. In this way, the protein reached the temperature of denaturation virtually instantaneously. In separate experiments, the protein was kept at the denaturation temperature in the absence of dye and the reporter molecule added at the end of the reaction. In the latter experiments, the fluorescence increase associated with the addition of dye was always instantaneous.\nTwo parameters derived from the fluorescence kinetic curves measure the rate of denaturation, namely, the slope at the inflection point, and the first-order rate constant."}, "Stromelysin [3]": {"target": "T2, Stromelysin", "test": "Isothermal denaturation of stromelysin monitored by UV absorbance (hyperchromicity at 280 nm)", "assay_type": "binding", "conditions": "75° C.; absorbance at 280 nm", "procedure": "Sci., 7; 2118-2126 (1998).\nUV absorbance was measured using a Perkin-Elmer Lambda 40 UV-Vis dual-beam spectrophotometer (Perkin-Elmer Corp. Norwalk, Conn.). A capped 1.0 cm pathlength quartz cuvette filled with buffer was placed in the reference beam. In the sample beam, a capped 1.0 cm path length quartz cuvette containing 1.5 mL of degassed buffer or buffer plus ligand—less the volume of protein solution to be added—was placed in a thermostated cell holder and equilibrated at the temperature of isothermal denaturation. The temperature was maintained within 0.1° C. using a Neslab Exacal EX200 circulating water bath (Neslab Instruments, Inc. Portsmouth, N.H.). A 1-5 μL aliquot of the protein stock solution was added to the cuvette containing buffer or buffer plus ligand to yield a final volume of 1.5 mL and protein concentration near 0.5 μM. The cuvette was recapped and absorbance at 280 nm was measured every 1 second for up to 30 minutes with a bandwidth of 2 nm and response of 0.5 second. For each protein, the effects of several ligand concentrations were examined ranging from about 0.5 μM to about 400 μM. Cuvettes were thoroughly cleaned as described above with nitric acid and with 10% methanol and rinsed with distilled water and ethanol between experiments.\nAbsorbance. […]"}, "uridylate kinase (UK)": {"target": "T3, uridylate kinase (UK) (Staphylococcus aureus, UniProt Q2FZ22)", "T3 construct": "6-his tag (implied by Ni-NTA purification); made in house", "T3 sequence (Q2FZ22 1-240)": "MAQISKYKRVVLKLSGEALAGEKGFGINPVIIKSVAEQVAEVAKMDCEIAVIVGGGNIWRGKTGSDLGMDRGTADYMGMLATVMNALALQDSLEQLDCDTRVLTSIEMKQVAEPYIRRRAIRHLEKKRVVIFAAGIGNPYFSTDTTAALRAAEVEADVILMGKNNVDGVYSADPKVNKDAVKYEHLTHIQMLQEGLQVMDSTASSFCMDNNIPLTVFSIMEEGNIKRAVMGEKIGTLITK", "test": "Uridylate kinase activity assay at 25° C.", "assay_type": "biochemical, S. aureus", "conditions": "read-out: apparent Kd obtained from an activity assay"}, "[4]": {"target": "T4, S. aureus uridylate kinase (UK) (Staphylococcus aureus, UniProt Q2FZ22)", "T4 sequence (Q2FZ22 1-240)": "T3 sequence (Q2FZ22 1-240)", "test": "Robotic HTS isothermal denaturation assay, uridylate kinase, Nano Orange", "from_the_text": "Temperature was controlled with a circulating waterbath.\nValidation of Robotic HTS Assay."}},
  "data": [
    {"smiles": "Cc1cn([C@H]2C[C@H](O)[C@@H](COP(=O)(O)O)O2)c(=O)[nH]c1=O", "note": "[TMP, Thymidine monophosphate]", "values": [
      {"measurement": "Kd", "setting": "[1]; Kd calculated from the rate constants", "value": "7.6 ± 0.8", "unit": "mM"},
      {"measurement": "Kd", "setting": "[1]; Kd calculated from the slopes", "value": "9.1 ± 1.6", "unit": "mM"}
    ]},
    {"smiles": "CNC(=O)[C@H](Cc1ccc(O)cc1)NC(=O)Nc1n[nH]c(=S)s1", "note": "[PNU-143988]", "values": [
      {"measurement": "effect on denaturation of stromelysin", "setting": "Stromelysin [2]", "value": "inhibited in a dose-dependent manner"},
      {"measurement": "effect on hyperchromicity changes", "setting": "Stromelysin [3]", "value": "dose-dependent inhibition of both the rate and magnitude"}
    ]},
    {"smiles": "O=c1ccn([C@@H]2O[C@H](COP(=O)(O)O)[C@@H](O)[C@H]2O)c(=O)[nH]1", "note": "[UMP, uridine monophosphate]", "values": [
      {"measurement": "Kd", "setting": "uridylate kinase (UK)", "value": 1, "unit": "mM"},
      {"measurement": "Kd", "setting": "[4]", "value": "5.76 ± 0.95", "unit": "mM"},
      {"measurement": "effect on denaturation", "setting": "[4]; 41° C., 96-well microplate, robotic", "value": "concentration-dependent"}
    ]}
  ]
}
